Assay results taken from patent US4360665A, “4"-N-(Substituted)-apramycin antibiotic derivatives and intermediates therefor” (Eli Lilly and Company, priority 1981, dated 1982).
Values after ≈ are worked out from the molar mass of the structure shown. Like-named read-outs stand apart in the source and are kept apart here.

Tests used:
Serratia marcescens SE3 = experiment: MIC by standard agar dilution test; type: cell-based
From the text: (§1) The antibacterial activity of the antibiotic compounds of this invention is illustrated by the following in vitro and in vivo test data obtained with representative compounds. In Tables I and II, the minimum inhibitory concentration (MIC) for representative compounds against a wide range of gram-positive and gram-negative bacteria are presented. The MIC values were obtained by the standard agar dilution test.

[1] = tested on: Pseudomonas aeruginosa Ps18; experiment: MIC by standard agar dilution test; type: cell-based; details: Table 1; Pseudomonas aeruginosa Ps18; agar dilution; read-out: Minimum Inhibitory Concentration
From the text: as §1

[2] = tested on: Salmonella heidelberg X514; experiment: MIC by standard agar dilution test; type: cell-based; details: Salmonella enterica, Table 1, read-out: Minimum Inhibitory Concentration
From the text: as §1

[3] = tested on: Enterobacter cloacae EN453; experiment: MIC by standard agar dilution test; type: cell-based; details: Table II, read-out: Minimum Inhibitory Concentration
From the text: as §1

Proteus inconstans PV25 = experiment: MIC by standard agar dilution test; type: cell-based; details: Providencia alcalifaciens, Table II, read-out: Minimum Inhibitory Concentration
From the text: as §1

[4] = tested on: Staphylococcus aureus S13E; experiment: MIC by standard agar dilution test; type: cell-based; details: read-out: Minimum Inhibitory Concentration
From the text: as §1

[5] = tested on: Klebsiella pneumoniae X26; experiment: MIC by standard agar dilution test; type: cell-based; details: Table 1, read-out: Minimum Inhibitory Concentration
From the text: as §1

[6] = tested on: Klebsiella pneumoniae KL2; experiment: MIC by standard agar dilution test; type: cell-based; details: Table II, read-out: Minimum Inhibitory Concentration
From the text: as §1

Proteus rettgeri PR2 = experiment: MIC by standard agar dilution test; type: cell-based; details: Providencia rettgeri, Table II, read-out: Minimum Inhibitory Concentration
From the text: as §1

Proteus inconstans PR33 = experiment: MIC by standard agar dilution test; type: cell-based; details: Providencia alcalifaciens, Table 1, read-out: Minimum Inhibitory Concentration
From the text: as §1

[7] = tested on: Pseudomonas aeruginosa Ps25; experiment: MIC by standard agar dilution test; type: cell-based; details: Table II, read-out: Minimum Inhibitory Concentration
From the text: as §1

[8] = tested on: Enterobacter cloacae 265A; experiment: MIC by standard agar dilution test; type: cell-based; details: Table 1, read-out: Minimum Inhibitory Concentration
From the text: as §1

[9] = tested on: Staphylococcus epidermidis EPI1; experiment: MIC by standard agar dilution test; type: cell-based; details: Table 1, read-out: Minimum Inhibitory Concentration
From the text: as §1

[10] = tested on: Staphylococcus aureus X400; experiment: MIC by standard agar dilution test; type: cell-based; details: Table 1, read-out: Minimum Inhibitory Concentration
From the text: as §1

[11] = tested on: Salmonella typhimurium 1335; experiment: MIC by standard agar dilution test; type: cell-based; details: Salmonella enterica, Table 1, read-out: Minimum Inhibitory Concentration
From the text: as §1

[12] = tested on: Citrobacter freundii CF17; experiment: MIC by standard agar dilution test; type: cell-based; details: Table 1, read-out: Minimum Inhibitory Concentration
From the text: as §1

[13] = tested on: Pseudomonas aeruginosa X239; experiment: MIC by standard agar dilution test; type: cell-based
From the text: as §1

[14] = tested on: Pseudomonas aeruginosa Ps9; experiment: MIC by standard agar dilution test; type: cell-based; details: Table II, read-out: Minimum Inhibitory Concentration
From the text: as §1

Shigella sonnei N9 = experiment: MIC by standard agar dilution test; type: cell-based; details: Table 1, read-out: Minimum Inhibitory Concentration
From the text: as §1

[15] = tested on: Pseudomonas aeruginosa Ps15; experiment: MIC by standard agar dilution test; type: cell-based; details: Table II, read-out: Minimum Inhibitory Concentration
From the text: as §1

[16] = tested on: Enterobacter aerogenes X68; experiment: MIC by standard agar dilution test; type: cell-based; details: Klebsiella aerogenes, Table 1, read-out: Minimum Inhibitory Concentration
From the text: as §1

Serratia marcescens SE2 = experiment: MIC by standard agar dilution test; type: cell-based; details: Table II, read-out: Minimum Inhibitory Concentration
From the text: as §1

Proteus morganii PR15 = experiment: MIC by standard agar dilution test; type: cell-based; details: Morganella morganii, Table 1, read-out: Minimum Inhibitory Concentration
From the text: as §1

[17] = tested on: Pseudomonas aeruginosa X528; experiment: MIC by standard agar dilution test; type: cell-based
From the text: as §1

[18] = tested on: Bordetella bronchiseptica 16; experiment: MIC by standard agar dilution test; type: cell-based; details: Bordetella bronchiseptica, 16, read-out: Minimum Inhibitory Concentration
From the text: as §1

[19] = tested on: Klebsiella pneumoniae KAE; experiment: MIC by standard agar dilution test; type: cell-based; details: Table 1, read-out: Minimum Inhibitory Concentration
From the text: as §1

Proteus rettgeri C24 = experiment: MIC by standard agar dilution test; type: cell-based; details: Providencia rettgeri, Table 1, read-out: Minimum Inhibitory Concentration
From the text: as §1

[20] = tested on: Haemophilus influenzae HOLT; experiment: MIC by standard agar dilution test; type: cell-based; details: Table 1, read-out: Minimum Inhibitory Concentration
From the text: as §1

Enterobacter cloacae EB5 = experiment: MIC by standard agar dilution test; type: cell-based; details: Table 1, read-out: Minimum Inhibitory Concentration
From the text: as §1

[21] = tested on: Pseudomonas aeruginosa X48; experiment: MIC by standard agar dilution test; type: cell-based; details: Table II, read-out: Minimum Inhibitory Concentration
From the text: as §1

[22] = tested on: Streptococcus group D 9960; experiment: MIC by standard agar dilution test; type: cell-based; details: D9960, Table 1, read-out: Minimum Inhibitory Concentration
From the text: as §1

[23] = tested on: Pseudomonas aeruginosa 4276; experiment: MIC by standard agar dilution test; type: cell-based; details: Table II, read-out: Minimum Inhibitory Concentration
From the text: as §1

[24] = tested on: Streptococcus group D X66; experiment: MIC by standard agar dilution test; type: cell-based; details: DX66, Table 1, read-out: Minimum Inhibitory Concentration
From the text: as §1

Proteus rettgeri PR7 = experiment: MIC by standard agar dilution test; type: cell-based; details: Providencia rettgeri, Table 1, read-out: Minimum Inhibitory Concentration
From the text: as §1

[25] = tested on: Pseudomonas aeruginosa PI23; experiment: MIC by standard agar dilution test; type: cell-based; details: Table II, read-out: Minimum Inhibitory Concentration
From the text: as §1

[26] = tested on: Enterobacter aerogenes C32; experiment: MIC by standard agar dilution test; type: cell-based; details: Klebsiella aerogenes, Table 1, read-out: Minimum Inhibitory Concentration
From the text: as §1

[27] = tested on: Streptococcus pneumoniae Park 1; experiment: MIC by standard agar dilution test; type: cell-based; details: PARK1, Table 1, read-out: Minimum Inhibitory Concentration
From the text: as §1

[28] = tested on: Streptococcus pyogenes C203; experiment: MIC by standard agar dilution test; type: cell-based; details: Table 1, read-out: Minimum Inhibitory Concentration
From the text: as §1

[29] = tested on: Enterobacter aerogenes EB17; experiment: MIC by standard agar dilution test; type: cell-based; details: Klebsiella aerogenes, Table 1, read-out: Minimum Inhibitory Concentration
From the text: as §1

Proteus morganii PR1 = experiment: MIC by standard agar dilution test; type: cell-based; details: Morganella morganii, Table II, read-out: Minimum Inhibitory Concentration
From the text: as §1

Escherichia coli EC14 = experiment: MIC by standard agar dilution test; type: cell-based; details: Table 1, read-out: Minimum Inhibitory Concentration
From the text: as §1

[30] = tested on: Haemophilus influenzae R252; experiment: MIC by standard agar dilution test; type: cell-based; details: Table 1; Haemophilus influenzae R252; agar dilution; read-out: Minimum Inhibitory Concentration
From the text: as §1

[31] = tested on: Enterobacter aerogenes EB6; experiment: MIC by standard agar dilution test; type: cell-based; details: Klebsiella aerogenes; Table II; Enterobacter aerogenes EB6; agar dilution; read-out: Minimum Inhibitory Concentration
From the text: as §1

[32] = tested on: Staphylococcus aureus X1.1; experiment: MIC by standard agar dilution test; type: cell-based; details: Table 1, read-out: Minimum Inhibitory Concentration
From the text: as §1

[33] = tested on: Staphylococcus aureus V41; experiment: MIC by standard agar dilution test; type: cell-based; details: Table 1, read-out: Minimum Inhibitory Concentration
From the text: as §1

Escherichia coli N10 = experiment: MIC by standard agar dilution test; type: cell-based; details: Table 1, read-out: Minimum Inhibitory Concentration
From the text: as §1

[34] = tested on: Pseudomonas aeruginosa SF-2; experiment: MIC by standard agar dilution test; type: cell-based; details: SF2, Table II, read-out: Minimum Inhibitory Concentration
From the text: as §1

Escherichia coli TEM = experiment: MIC by standard agar dilution test; type: cell-based; details: read-out: Minimum Inhibitory Concentration
From the text: as §1

Serratia marcescens X99 = experiment: MIC by standard agar dilution test; type: cell-based
From the text: as §1

[35] = tested on: Enterobacter cloacae EB24; experiment: MIC by standard agar dilution test; type: cell-based; details: Table II; Enterobacter cloacae EB24; agar dilution; read-out: Minimum Inhibitory Concentration
From the text: as §1

[36] = tested on: Staphylococcus epidermidis EPI2; experiment: MIC by standard agar dilution test; type: cell-based; details: Table 1, read-out: Minimum Inhibitory Concentration
From the text: as §1

[37] = tested on: Staphlyococcus aureus 3055; experiment: Subcutaneous therapy of experimental bacterial infection in mice; type: in vivo; details: Mus musculus, sc, subcutaneous doses at 1 and 5 hours postinfection, read-out: Effective Dose (ED50), dose to protect 50 percent of the test animals
Experimental: Table III illustrates the effective dose (ED50, effective dose to protect 50 percent of the test animals) for a representative compound of this invention against an experimental bacterial infection in mice. | *mg/kg × 2 subcutaneous doses at 1 and 5 hours postinfection The ED50 value was determined as described by W. E. Wick et al., Journal of Bacteriology, 81 [No. 2], 233-235 (1961).

SMILES: CN[C@@H]1[C@@H](O[C@H]2O[C@H](CO)[C@@H](NC(C)=O)[C@H](O)[C@H]2O)O[C@H]2C[C@@H](N)[C@@H](O[C@H]3[C@H](O)[C@@H](O)[C@H](N)C[C@@H]3N)O[C@@H]2[C@@H]1O [Test Compound 1, 4"-N-Acetylapramycin]
- MIC (Serratia marcescens SE3; SE3, Table 1, read-out: Minimum Inhibitory Concentration): 32 µg/mL (≈ 55 µM)
- MIC (Serratia marcescens SE3; SE3, Table II, read-out: Minimum Inhibitory Concentration): 8 µg/mL (≈ 13.8 µM)
- MIC [1]: 16 µg/mL (≈ 27.5 µM)
- MIC [2]: 32 µg/mL (≈ 55 µM)
- MIC [3]: 8 µg/mL (≈ 13.8 µM)
- MIC (Proteus inconstans PV25): 8 µg/mL (≈ 13.8 µM)
- MIC [4]: 64 µg/mL (≈ 110 µM)
- MIC [5]: 16 µg/mL (≈ 27.5 µM)
- MIC [6]: 8 µg/mL (≈ 13.8 µM)
- MIC (Proteus rettgeri PR2): 32 µg/mL (≈ 55 µM)
- MIC (Proteus inconstans PR33): 16 µg/mL (≈ 27.5 µM)
- MIC [7]: 32 µg/mL (≈ 55 µM)
- MIC [8]: 32 µg/mL (≈ 55 µM)
- MIC [9]: 32 µg/mL (≈ 55 µM)
- MIC [10]: 128 µg/mL (≈ 220 µM)
- MIC [11]: 32 µg/mL (≈ 55 µM)
- MIC [12]: 32 µg/mL (≈ 55 µM)
- MIC ([13]; X239, Table 1, read-out: Minimum Inhibitory Concentration): 64 µg/mL (≈ 110 µM)
- MIC ([13]; X239, Table II, read-out: Minimum Inhibitory Concentration): 32 µg/mL (≈ 55 µM)
- MIC [14]: 128 µg/mL (≈ 220 µM)
- MIC (Shigella sonnei N9): 32 µg/mL (≈ 55 µM)
- MIC [15]: 32 µg/mL (≈ 55 µM)
- MIC [16]: 16 µg/mL (≈ 27.5 µM)
- MIC (Serratia marcescens SE2): 8 µg/mL (≈ 13.8 µM)
- MIC (Proteus morganii PR15): 32 µg/mL (≈ 55 µM)
- Minimum Inhibitory Concentration ([17]; Table 1): 64 µg/mL
- MIC ([17]; Table II, read-out: Minimum Inhibitory Concentration): 64 µg/mL (≈ 110 µM)
- MIC [18]: 128 µg/mL (≈ 220 µM)
- MIC [19]: 16 µg/mL (≈ 27.5 µM)
- MIC (Proteus rettgeri C24): 32 µg/mL (≈ 55 µM)
- MIC [20]: 16 µg/mL (≈ 27.5 µM)
- MIC (Enterobacter cloacae EB5): 32 µg/mL (≈ 55 µM)
- MIC [21]: 32 µg/mL (≈ 55 µM)
- MIC [22]: > 128 µg/mL
- MIC [23]: 32 µg/mL (≈ 55 µM)
- MIC [24]: > 128 µg/mL
- MIC (Proteus rettgeri PR7): 32 µg/mL (≈ 55 µM)
- MIC [25]: > 128 µg/mL
- MIC [26]: 16 µg/mL (≈ 27.5 µM)
- MIC [27]: 128 µg/mL (≈ 220 µM)
- MIC [28]: > 128 µg/mL
- MIC [29]: 16 µg/mL (≈ 27.5 µM)
- MIC (Proteus morganii PR1): 8 µg/mL (≈ 13.8 µM)
- MIC (Escherichia coli EC14): 16 µg/mL (≈ 27.5 µM)
- MIC [30]: 16 µg/mL (≈ 27.5 µM)
- MIC [31]: 8 µg/mL (≈ 13.8 µM)
- MIC [32]: 32 µg/mL (≈ 55 µM)
- MIC [33]: 64 µg/mL (≈ 110 µM)
- MIC (Escherichia coli N10): 32 µg/mL (≈ 55 µM)
- MIC [34]: 64 µg/mL (≈ 110 µM)
- MIC (Escherichia coli TEM): 16 µg/mL (≈ 27.5 µM)
- MIC (Serratia marcescens X99; X99, Table 1, read-out: Minimum Inhibitory Concentration): 16 µg/mL (≈ 27.5 µM)
- MIC (Serratia marcescens X99; X99, Table II, read-out: Minimum Inhibitory Concentration): 4 µg/mL (≈ 6.88 µM)
- MIC [35]: 8 µg/mL (≈ 13.8 µM)
- MIC [36]: 64 µg/mL (≈ 110 µM)
- ED50 [37]: 9.4 mg/kg
